{"source": "patent US11976068B2", "about": "(CHIMERIX, INC., priority 2015, dated 2024)", "key": {"human BCRP": {"target": "T1, human BCRP (Homo sapiens, UniProt Q9UNQ0)", "T1 sequence (Q9UNQ0 1-655)": "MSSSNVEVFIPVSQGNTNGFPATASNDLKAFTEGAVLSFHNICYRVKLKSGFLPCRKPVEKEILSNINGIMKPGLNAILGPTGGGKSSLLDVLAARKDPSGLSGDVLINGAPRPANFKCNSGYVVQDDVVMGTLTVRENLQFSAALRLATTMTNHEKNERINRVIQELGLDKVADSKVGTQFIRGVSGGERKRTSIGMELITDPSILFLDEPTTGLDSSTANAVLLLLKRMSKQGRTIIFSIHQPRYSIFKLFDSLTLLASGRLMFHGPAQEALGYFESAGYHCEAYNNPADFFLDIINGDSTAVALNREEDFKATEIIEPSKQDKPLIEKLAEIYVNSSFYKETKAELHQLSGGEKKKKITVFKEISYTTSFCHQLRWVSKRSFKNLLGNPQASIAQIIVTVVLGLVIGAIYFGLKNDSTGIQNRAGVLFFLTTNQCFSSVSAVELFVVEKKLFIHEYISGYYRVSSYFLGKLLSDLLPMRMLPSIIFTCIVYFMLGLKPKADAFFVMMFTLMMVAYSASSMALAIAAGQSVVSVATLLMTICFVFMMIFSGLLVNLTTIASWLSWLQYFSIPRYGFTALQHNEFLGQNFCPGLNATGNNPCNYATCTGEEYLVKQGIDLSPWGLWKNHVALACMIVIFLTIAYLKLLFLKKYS", "assay": "BCRP inhibition, bidirectional permeability of prazosin in MDCKII-BCRP monolayers", "conditions": "prazosin probe; inhibitor 1 μM Ko134 (positive control)"}, "human cancer cells": {"test_system": "human cancer cells", "assay": "Viability of human cancer cells at 72 hours post-treatment", "assay_type": "cell-based", "conditions": "change in potency relative to ONC201; viability at 72 hours post-treatment", "protocol": "A number of exemplary analogs of compound (1) were prepared based on the syntheses described here. For each of these compounds, the viability of human cancer cells at 72 hours post-treatment with the compound was measured."}, "[1]": {"test_system": "human colon cancer xenograft", "assay": "Human colon cancer xenograft-bearing mice", "assay_type": "in vivo", "conditions": "single dose, oral or intraperitoneal, compared to vehicle-treated control cohorts"}, "human MDR1": {"target": "human MDR1 (Homo sapiens, UniProt P08183)", "sequence (P08183 whole entry)": "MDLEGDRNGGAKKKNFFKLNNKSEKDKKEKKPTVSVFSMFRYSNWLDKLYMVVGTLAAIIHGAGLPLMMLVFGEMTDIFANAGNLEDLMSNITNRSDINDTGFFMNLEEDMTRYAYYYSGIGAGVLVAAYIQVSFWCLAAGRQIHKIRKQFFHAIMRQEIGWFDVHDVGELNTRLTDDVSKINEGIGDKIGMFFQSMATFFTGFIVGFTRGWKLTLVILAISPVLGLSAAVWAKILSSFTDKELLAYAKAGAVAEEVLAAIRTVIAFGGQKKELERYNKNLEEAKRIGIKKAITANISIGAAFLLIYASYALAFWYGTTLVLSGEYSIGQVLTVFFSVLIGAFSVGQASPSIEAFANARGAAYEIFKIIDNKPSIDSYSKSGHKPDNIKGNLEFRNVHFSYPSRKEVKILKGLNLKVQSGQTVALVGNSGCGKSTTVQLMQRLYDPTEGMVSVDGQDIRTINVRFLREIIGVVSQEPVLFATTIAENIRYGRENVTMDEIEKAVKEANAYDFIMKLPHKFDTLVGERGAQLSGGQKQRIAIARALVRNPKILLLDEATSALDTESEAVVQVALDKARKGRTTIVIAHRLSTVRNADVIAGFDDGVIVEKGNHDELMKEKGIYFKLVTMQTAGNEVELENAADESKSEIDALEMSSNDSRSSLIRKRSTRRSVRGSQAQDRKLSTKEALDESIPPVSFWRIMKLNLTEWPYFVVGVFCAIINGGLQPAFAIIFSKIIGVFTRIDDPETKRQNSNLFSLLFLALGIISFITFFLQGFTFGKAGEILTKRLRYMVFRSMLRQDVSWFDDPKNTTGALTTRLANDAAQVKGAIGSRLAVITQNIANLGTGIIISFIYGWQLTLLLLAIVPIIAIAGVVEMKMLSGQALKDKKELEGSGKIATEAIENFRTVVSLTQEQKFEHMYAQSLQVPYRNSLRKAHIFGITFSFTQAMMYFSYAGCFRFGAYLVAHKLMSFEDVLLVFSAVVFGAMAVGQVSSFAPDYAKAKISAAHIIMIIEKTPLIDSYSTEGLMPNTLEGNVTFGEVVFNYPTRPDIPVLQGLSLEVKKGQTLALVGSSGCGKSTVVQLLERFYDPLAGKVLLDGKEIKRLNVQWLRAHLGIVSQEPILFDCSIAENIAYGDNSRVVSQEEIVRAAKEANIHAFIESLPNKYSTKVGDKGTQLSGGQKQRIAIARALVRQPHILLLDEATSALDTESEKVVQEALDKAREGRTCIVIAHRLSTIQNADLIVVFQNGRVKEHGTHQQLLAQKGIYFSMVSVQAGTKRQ", "conditions": "digoxin probe; inhibitor 10 μM Valspodar (positive control)"}, "CYP 1A2": {"test_system": "CYP 1A2", "assay": "CYP mRNA induction in cryopreserved human hepatocytes"}, "CYP 2B6": {"test_system": "CYP 2B6", "assay": "CYP mRNA induction in cryopreserved human hepatocytes"}, "CYP 3A4": {"test_system": "CYP 3A4", "assay": "CYP mRNA induction in cryopreserved human hepatocytes"}, "[2]": {"conditions": "donor CDP, NC: flumazenil (25 μM)"}, "[3]": {"conditions": "donor two, NC: flumazenil (25 μM)"}}, "note": "Where two headings read alike, the source gives them in different places."}
{"smiles": "CC(C)C[C@H]1c2[nH]c3ccccc3c2C[C@H]2C(=O)N[C@@H](CCC(=O)OC(C)(C)C)C(=O)N21", "note": "[Ko134, reference compound]", "values": [{"measurement": "% Inhibition (Efflux Ratio)", "setting": "human BCRP", "value": 98.7, "unit": "%"}]}
{"smiles": "O=C1C2=C(CCN(Cc3ccccc3)C2)N2CCN=C2N1Cc1cc(F)cc(F)c1", "note": "[ONC210]", "values": [{"measurement": "Relative Potency", "setting": "human cancer cells", "value": "A (A Indicates a potency increase of >2-fold of ONC201)"}]}
{"smiles": "O=C1C2=C(CCN(Cc3ccccc3)C2)N2CCN=C2N1Cc1ccc(Cl)c(Cl)c1", "note": "[ONC211]", "values": [{"measurement": "Relative Potency", "setting": "human cancer cells", "value": "A (A Indicates a potency increase of >2-fold of ONC201)"}]}
{"smiles": "O=C1C2=C(CCN(Cc3ccccc3)C2)N2CCN=C2N1Cc1ccc(C(F)(F)F)cc1", "note": "[ONC212]", "values": [{"measurement": "tumor volume", "setting": "[1]", "value": "significant reduction of tumor volume"}]}
{"smiles": "O=C1C2=C(CCN(Cc3ccccc3)C2)N2CCN=C2N1Cc1ccccc1F", "note": "[ONC217]", "values": [{"measurement": "Relative Potency", "setting": "human cancer cells", "value": "B (B Indicates potency that is within 2-fold of ONC201)"}]}
{"smiles": "O=C1C2=C(CCN(Cc3ccccc3)C2)N2CCN=C2N1CC1CCON1", "note": "(stereo not drawn) [ONC222]", "values": [{"measurement": "Relative Potency", "setting": "human cancer cells", "value": "B (B Indicates potency that is within 2-fold of ONC201)"}]}
{"smiles": "C/C=C/C[C@@H](C)C(=O)[C@H]1C(=O)N[C@@H](C(C)C)C(=O)N(C)CC(=O)N(C)[C@@H](CC(C)C)C(=O)N[C@@H](C(C)C)C(=O)N(C)[C@@H](CC(C)C)C(=O)N[C@@H](C)C(=O)N[C@H](C)C(=O)N(C)[C@@H](CC(C)C)C(=O)N(C)[C@@H](CC(C)C)C(=O)N(C)[C@@H](C(C)C)C(=O)N1C", "note": "[Valspodar, reference compound]", "values": [{"measurement": "% Inhibition (Efflux Ratio)", "setting": "human MDR1", "value": 96.8, "unit": "%"}]}
{"smiles": "CCOC(=O)c1ncn2c1CN(C)C(=O)c1cc(F)ccc1-2", "note": "[flumazenil]", "values": [{"measurement": "mRNA Induction Fold", "setting": "CYP 1A2; [2]", "value": 1.16, "unit": "fold"}, {"measurement": "mRNA Induction Fold", "setting": "CYP 1A2; donor one, NC: flumazenil (25 μM)", "value": 1.31, "unit": "fold"}, {"measurement": "mRNA Induction Fold", "setting": "CYP 1A2; [3]", "value": 1.34, "unit": "fold"}, {"measurement": "mRNA Induction Fold", "setting": "CYP 2B6; [2]", "value": 1.16, "unit": "fold"}, {"measurement": "mRNA Induction Fold", "setting": "CYP 2B6; [3]", "value": 1.27, "unit": "fold"}, {"measurement": "mRNA Induction Fold", "setting": "CYP 3A4", "value": 1.37, "unit": "fold"}, {"measurement": "mRNA Induction Fold", "setting": "CYP 3A4; CYP 3A4, donor CDP, NC: flumazenil (25 μM)", "value": 1.03, "unit": "fold"}, {"measurement": "mRNA Induction Fold", "setting": "CYP 3A4; CYP 3A4, donor two, NC: flumazenil (25 μM)", "value": 0.93, "unit": "fold"}]}
{"smiles": "COc1ccc2[nH]c([S+]([O-])Cc3ncc(C)c(OC)c3C)nc2c1", "note": "(stereo not drawn) [omeprazole]", "values": [{"measurement": "mRNA Induction Fold", "setting": "CYP 1A2; donor CDP, PC: omeprazole (50 μM)", "value": 28.71, "unit": "fold"}, {"measurement": "mRNA Induction Fold", "setting": "CYP 1A2; donor one, PC: omeprazole (50 μM)", "value": 35.53, "unit": "fold"}, {"measurement": "mRNA Induction Fold", "setting": "CYP 1A2; donor two, PC: omeprazole (50 μM)", "value": 31.06, "unit": "fold"}]}
{"smiles": "CCC1(c2ccccc2)C(=O)NC(=O)NC1=O", "note": "[phenobarbital]", "values": [{"measurement": "mRNA Induction Fold", "setting": "CYP 2B6; donor CDP, PC: phenobarbital (750 μM)", "value": 8.56, "unit": "fold"}, {"measurement": "mRNA Induction Fold", "setting": "CYP 2B6; donor one, PC: phenobarbital (750 μM)", "value": 14.38, "unit": "fold"}, {"measurement": "mRNA Induction Fold", "setting": "CYP 2B6; donor two, PC: phenobarbital (750 μM)", "value": 8.98, "unit": "fold"}]}
